“And” between values parts separate entries of the source, which are not always exact repeats. Equal values may be shown once. Toxic doses and inconclusive results are not listed.
Test system: P388 leukemia ip, CD2F1 mice, survival T/C
Assay: NCI In Vivo Anticancer Drug Screen. Data for tumor model P388 Leukemia (intraperitoneal) in CD2F1 (CDF1) mice
Conditions: endpoint: median survival time, higher = longer survival
Method in brief: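 Mice carrying the transplanted tumor received test compound or vehicle. Survival was recorded in each group, and the value is the treated-group measurement divided by that of the vehicle-treated control group.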

[1] = dose: 60.0 mg/kg/injection, schedule: Q01DX005 (ip), vehicle: Klucel (hydroxypropylcellulose) (HPC)
[2] = dose: 120.0 mg/kg/injection, schedule: Q01DX005 (ip), vehicle: Klucel (hydroxypropylcellulose) (HPC)
[3] = dose: 240.0 mg/kg/injection, schedule: Q01DX005 (ip), vehicle: Klucel (hydroxypropylcellulose) (HPC)
[4] = dose: 12.5 mg/kg/injection, schedule: Q01DX009 (ip), vehicle: saline with Tween-80
[5] = dose: 50.0 mg/kg/injection, schedule: Q01DX009 (ip), vehicle: saline with Tween-80
[6] = dose: 100.0 mg/kg/injection, schedule: Q01DX009 (ip), vehicle: saline with Tween-80
[7] = dose: 50.0 mg/kg/injection, schedule: Q01DX005 (ip), vehicle: saline with Tween-80
[8] = dose: 6.25 mg/kg/injection, schedule: Q01DX009 (ip), vehicle: Klucel (hydroxypropylcellulose) (HPC)
[9] = dose: 25.0 mg/kg/injection, schedule: Q01DX009 (ip), vehicle: Klucel (hydroxypropylcellulose) (HPC)
[10] = dose: 25.0 mg/kg/injection, schedule: Q01DX005 (ip), vehicle: Klucel (hydroxypropylcellulose) (HPC)
[11] = dose: 50.0 mg/kg/injection, schedule: Q01DX005 (ip), vehicle: Klucel (hydroxypropylcellulose) (HPC)
[12] = dose: 100.0 mg/kg/injection, schedule: Q01DX005 (ip), vehicle: Klucel (hydroxypropylcellulose) (HPC)
[13] = dose: 200.0 mg/kg/injection, schedule: Q01DX005 (ip), vehicle: Klucel (hydroxypropylcellulose) (HPC)
[14] = dose: 60.0 mg/kg/injection, schedule: Q01DX005 (ip), vehicle: saline with Tween-80
[15] = dose: 120.0 mg/kg/injection, schedule: Q01DX005 (ip), vehicle: saline with Tween-80
[16] = dose: 240.0 mg/kg/injection, schedule: Q01DX005 (ip), vehicle: saline with Tween-80
[17] = dose: 200.0 mg/kg/injection, schedule: Q04DX003 (ip), vehicle: saline with Tween-80
[18] = dose: 50.0 mg/kg/injection, schedule: Q01DX009 (ip), vehicle: Klucel (hydroxypropylcellulose) (HPC)
[19] = dose: 100.0 mg/kg/injection, schedule: Q01DX009 (ip), vehicle: Klucel (hydroxypropylcellulose) (HPC)
[20] = dose: 200.0 mg/kg/injection, schedule: Q01DX009 (ip), vehicle: Klucel (hydroxypropylcellulose) (HPC)
[21] = dose: 50.0 mg/kg/injection, schedule: Q04DX003 (ip), vehicle: saline with Tween-80

## CCOC(=O)c1ccc(NC(=O)Nc2scc[n+]2C)cc1
dose: 12.5 mg/kg/injection, schedule: Q01DX009 (ip), vehicle: distilled water + Tween-80
  T/C: 93 % of control
dose: 25.0 mg/kg/injection, schedule: Q01DX009 (ip), vehicle: distilled water + Tween-80
  T/C: 102 % of control
dose: 50.0 mg/kg/injection, schedule: Q01DX009 (ip), vehicle: distilled water + Tween-80
  T/C: 108 % of control
dose: 100.0 mg/kg/injection, schedule: Q01DX009 (ip), vehicle: distilled water + Tween-80
  T/C: 100 % of control
dose: 200.0 mg/kg/injection, schedule: Q01DX009 (ip), vehicle: distilled water + Tween-80
  T/C: 90 % of control

## O=C(O)c1cnc2cc3c(cc2c1Nc1ccc2c(c1)OCO2)OCO3
[1]
  T/C: 93 % of control
[2]
  T/C: 92 % of control
[3]
  T/C: 96 % of control

## C[CH2][Sn]1([CH2]C)[O]OC(c2ccccc2)[O]1 (configuration not stated)
dose: 1.56 mg/kg/injection, schedule: Q01DX009 (ip), vehicle: saline with Tween-80
  T/C: 155 % of control
[4]
  T/C: 173 % of control

## CC(=O)OC1CC(OC(C)=O)C(OC(C)=O)C(CS[As](C)C)O1 (configuration not stated)
[5]
  T/C: 99 % of control
[6]
  T/C: 99 % of control
dose: 200.0 mg/kg/injection, schedule: Q01DX009 (ip), vehicle: saline with Tween-80
  T/C: 96 % of control

## CCCCN1NC1(C)c1ccccc1 (configuration not stated)
[7]
  T/C: 108 % of control
dose: 100.0 mg/kg/injection, schedule: Q01DX005 (ip), vehicle: saline with Tween-80
  T/C: 104 % of control
dose: 200.0 mg/kg/injection, schedule: Q01DX005 (ip), vehicle: saline with Tween-80
  T/C: 112 % of control

## CN(C)CCCNC(=O)c1cccc2cccc(C(=O)O)c12
dose: 60.0 mg/kg/injection, schedule: Q01DX005 (ip), vehicle: saline
  T/C: 97 % of control
dose: 120.0 mg/kg/injection, schedule: Q01DX005 (ip), vehicle: saline
  T/C: 101 % of control
dose: 240.0 mg/kg/injection, schedule: Q01DX005 (ip), vehicle: saline
  T/C: 104 % of control

## CSC(=S)S(=O)(=O)C12CC3CC(CC(C3)C1)C2
[8]
  T/C: 111 % of control
[9]
  T/C: 113 % of control and 114 % of control

## S=C1SCN(Cc2ccco2)CN1Cc1ccco1
[5]
  T/C: 94 % of control
[6]
  T/C: 94 % of control

## N#Cc1ccc[n+](Cc2c(Cl)cccc2Cl)c1
dose: 6.25 mg/kg/injection, schedule: Q01DX009 (ip), vehicle: saline
  T/C: 121 % of control
dose: 12.5 mg/kg/injection, schedule: Q01DX009 (ip), vehicle: saline
  T/C: 108 % of control and 112 % of control
dose: 25.0 mg/kg/injection, schedule: Q01DX009 (ip), vehicle: saline
  T/C: 101 % of control and 115 % of control
dose: 50.0 mg/kg/injection, schedule: Q01DX009 (ip), vehicle: saline
  T/C: 110 % of control and 97 % of control

## Cc1ccc2nc(NC(=S)SSC(=S)Nc3nc4ccc(C)cc4s3)sc2c1
[8]
  T/C: 107 % of control
dose: 12.5 mg/kg/injection, schedule: Q01DX009 (ip), vehicle: Klucel (hydroxypropylcellulose) (HPC)
  T/C: 108 % of control
[9]
  T/C: 94 % of control

## COP(=O)(OC)O/C(=C/Cl)c1cc(Cl)cc(Cl)c1Cl
dose: 100.0 mg/kg/injection, schedule: Q04DX003 (ip), vehicle: Klucel (hydroxypropylcellulose) (HPC)
  T/C: 102 % of control
dose: 200.0 mg/kg/injection, schedule: Q04DX003 (ip), vehicle: Klucel (hydroxypropylcellulose) (HPC)
  T/C: 100 % of control
dose: 400.0 mg/kg/injection, schedule: Q04DX003 (ip), vehicle: Klucel (hydroxypropylcellulose) (HPC)
  T/C: 111 % of control

## CN1CCCN(C)C1c1ccc(Cl)cc1
dose: 12.5 mg/kg/injection, schedule: Q01DX009 (ip), vehicle: saline sonified
  T/C: 90 % of control
dose: 25.0 mg/kg/injection, schedule: Q01DX009 (ip), vehicle: saline sonified
  T/C: 90 % of control

## COC(=O)[C@]1(C)CCC[C@@]2(C)[C@@H]3C[C@@H]4[C@H]5C[C@@]3(CC[C@@H]21)C[C@@]45C
[10]
  T/C: 100 % of control
[11]
  T/C: 97 % of control
[12]
  T/C: 97 % of control
[13]
  T/C: 95 % of control

## O=C1CCC2(CC1C1C=CCC1)OCCO2 (configuration not stated)
dose: 100.0 mg/kg/injection, schedule: Q01DX009 (ip), vehicle: saline sonified
  T/C: 100 % of control
dose: 200.0 mg/kg/injection, schedule: Q01DX009 (ip), vehicle: saline sonified
  T/C: 116 % of control
dose: 400.0 mg/kg/injection, schedule: Q01DX009 (ip), vehicle: saline sonified
  T/C: 100 % of control

## CS(=O)(=O)c1snc(N)c1C#N
dose: 12.5 mg/kg/injection, schedule: Q01DX005 (ip), vehicle: saline with Tween-80
  T/C: 106 % of control
dose: 25.0 mg/kg/injection, schedule: Q01DX005 (ip), vehicle: saline with Tween-80
  T/C: 101 % of control
[7]
  T/C: 102 % of control

## CCCCCC(=O)N1SC(NC(=O)OC)=Nc2ccccc21
dose: 50.0 mg/kg/injection, schedule: Q01DX005 (ip), vehicle: acetone
  T/C: 102 % of control
dose: 100.0 mg/kg/injection, schedule: Q01DX005 (ip), vehicle: acetone
  T/C: 107 % of control
dose: 200.0 mg/kg/injection, schedule: Q01DX005 (ip), vehicle: acetone
  T/C: 107 % of control

## CCOC(=O)c1cnc(SC)n(-c2ccc(Cl)cc2)c1=O
[11]
  T/C: 100 % of control
[12]
  T/C: 100 % of control
[13]
  T/C: 108 % of control

## O=C(O)C(Cc1ccccc1)NC(c1ccc(Cl)cc1)P(=O)(O)O (configuration not stated)
[14]
  T/C: 98 % of control
[15]
  T/C: 105 % of control
[16]
  T/C: 97 % of control

## COc1ccc(C2(C3NCCC4=C3CCCC4)CC2)cc1 (configuration not stated)
[11]
  T/C: 97 % of control
[12]
  T/C: 100 % of control

## CCCCC(CC)C(=O)OC(C)C(=O)N(CCCC)CCCC (configuration not stated)
[10]
  T/C: 105 % of control
[11]
  T/C: 103 % of control
[12]
  T/C: 105 % of control
[13]
  T/C: 95 % of control

## CN(C)C(=O)Oc1ccc(OC(=O)N(C)C)c2ccccc12
dose: 6.25 mg/kg/injection, schedule: Q01DX001 (ip), vehicle: Klucel (hydroxypropylcellulose) (HPC)
  T/C: 104 % of control
dose: 12.5 mg/kg/injection, schedule: Q01DX001 (ip), vehicle: Klucel (hydroxypropylcellulose) (HPC)
  T/C: 104 % of control
dose: 25.0 mg/kg/injection, schedule: Q01DX001 (ip), vehicle: Klucel (hydroxypropylcellulose) (HPC)
  T/C: 99 % of control and 100 % of control

## COc1ccc(C(c2cc3c(cc2O)OCO3)N2CCCCC2)c(OC)c1 (configuration not stated)
[1]
  T/C: 108 % of control
[2]
  T/C: 110 % of control
[3]
  T/C: 117 % of control

## Nc1nc(N)c2nc(CNc3ccc(C(=O)NC(CC(=O)O)C(=O)O)cc3)cnc2n1 (configuration not stated)
[4]
  T/C: 150 % of control
[5]
  T/C: 95 % of control
dose: 66.0 mg/kg/injection, schedule: Q04DX003 (ip), vehicle: saline with Tween-80
  T/C: 112 % of control
[17]
  T/C: 90 % of control

## COC(=O)C1=NNC(C(=O)OC)=C(c2ccccc2)C(c2ccccc2)=N1
[9]
  T/C: 89 % of control
[18]
  T/C: 90 % of control
[19]
  T/C: 93 % of control
[20]
  T/C: 98 % of control
dose: 400.0 mg/kg/injection, schedule: Q01DX009 (ip), vehicle: Klucel (hydroxypropylcellulose) (HPC)
  T/C: 106 % of control

## NN=c1c2ccccc2oc2ccccc12
[18]
  T/C: 112 % of control
[19]
  T/C: 115 % of control
[20]
  T/C: 115 % of control

## COc1ncnc2nc(Cl)[nH]c12
[11]
  T/C: 100 % of control
[12]
  T/C: 102 % of control

## [C-]#Cc1ccccc1.[C-]#Cc1ccccc1.[Cu+2]
dose: 12.5 mg/kg/injection, schedule: Q04DX003 (ip), vehicle: saline with Tween-80
  T/C: 91 % of control
dose: 25.0 mg/kg/injection, schedule: Q04DX003 (ip), vehicle: saline with Tween-80
  T/C: 86 % of control
[21]
  T/C: 87 % of control

## COCc1ccccc1-n1nccc1S(C)=O (configuration not stated)
[14]
  T/C: 106 % of control
[15]
  T/C: 98 % of control
[16]
  T/C: 106 % of control

## c1ccc(-c2cc3c(cc4c5nncn5ncn34)o2)cc1
[14]
  T/C: 86 % of control
[15]
  T/C: 86 % of control
[16]
  T/C: 91 % of control and 92 % of control

## O=C(COc1ccc([N+](=O)[O-])cc1)Nc1cccnc1
[21]
  T/C: 98 % of control
dose: 100.0 mg/kg/injection, schedule: Q04DX003 (ip), vehicle: saline with Tween-80
  T/C: 98 % of control
[17]
  T/C: 99 % of control

From PubChem BioAssay AID330 (DTP/NCI, 2004)
